Test results published in US20240351988A1, “ARYL HYDROCARBON RECEPTOR MODULATORS AND THEIR USE IN THE TREATMENT OF DISEASES AND DISORDERS” (Allianthera (Suzhou) Biopharmaceutical Co., Ltd., priority 2021, published 2024).

Key:
[1] = target: T1, Human Aryl Hydrocarbon Receptor (AhR) (Homo sapiens, UniProt P35869); assay: AHR antagonist reporter assay in human cell line (INDIGO AhR Reporter Assay System, kynurenic acid activated); type: cell-based; conditions: 200 μM kynurenic acid, 24 hours, luciferase; read-out: AhR Reporter Assay KA Antagonist Mode: IC50
T1 construct: purchased INDIGO Bioscience #1B06001-32; host or cells: AhR Reporter Cell (kit's proprietary reporter cells)
T1 sequence (P35869 11-848): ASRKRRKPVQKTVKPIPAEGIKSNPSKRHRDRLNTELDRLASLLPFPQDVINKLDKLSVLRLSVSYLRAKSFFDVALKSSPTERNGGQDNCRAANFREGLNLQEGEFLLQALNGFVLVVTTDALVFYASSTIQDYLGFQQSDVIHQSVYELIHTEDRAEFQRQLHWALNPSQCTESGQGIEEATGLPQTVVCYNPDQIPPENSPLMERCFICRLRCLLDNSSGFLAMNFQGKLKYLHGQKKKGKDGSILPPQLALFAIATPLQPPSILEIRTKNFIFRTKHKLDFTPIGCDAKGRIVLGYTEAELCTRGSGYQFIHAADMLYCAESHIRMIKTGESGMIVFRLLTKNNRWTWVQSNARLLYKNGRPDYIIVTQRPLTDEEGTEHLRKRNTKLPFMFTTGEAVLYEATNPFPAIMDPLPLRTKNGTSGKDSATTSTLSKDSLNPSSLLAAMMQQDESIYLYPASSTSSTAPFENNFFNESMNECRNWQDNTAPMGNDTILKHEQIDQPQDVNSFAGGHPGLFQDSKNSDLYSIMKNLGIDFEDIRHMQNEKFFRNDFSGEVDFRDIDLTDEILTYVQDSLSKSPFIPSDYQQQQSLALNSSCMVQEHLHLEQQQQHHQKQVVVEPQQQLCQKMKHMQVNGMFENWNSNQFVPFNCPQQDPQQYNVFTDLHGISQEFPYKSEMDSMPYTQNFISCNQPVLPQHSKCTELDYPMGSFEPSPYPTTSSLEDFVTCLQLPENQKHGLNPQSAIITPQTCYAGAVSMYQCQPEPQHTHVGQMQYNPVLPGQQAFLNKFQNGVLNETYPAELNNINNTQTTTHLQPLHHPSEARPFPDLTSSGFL
Experimental: The AhR reporter assay was performed following the protocol of the Human Aryl Hydrocarbon Receptor (AhR) Reporter Assay System (INDIGO Bioscience, #1B06001-32). AhR Reporter Cell was thawed and pre-incubated in Cell Recovery Medium (CRM) for 6 hours. The media was then removed and the cells were incubated with Compound Screening Medium (CSM) supplemented with 200 μM kynurenic acid for 24 hours in the absence (negative control) or presence of increasing concentrations of test compounds (typical dilution: […], 3.2 nM, 16 nM, 80 nM, 400 nM, 2 μM, 10 μM in duplicates). For positive inhibition control, cells activated with 200 μM kynurenic acid were incubated in the presence of literature AHR antagonists; alternatively un-activated cells were used as positive inhibition control. Following 24 hours incubation, the media was removed and Luciferase Detection Reagent (LDR) added. The firefly luciferase activity was quantified using a plate reader. Results were normalized by positive and negative controls.

[2] = test system: AHR-regulated gene CYP1A1 in human monocytic U937 cell line; assay: AHR-regulated CYP1A1 expression in U937 cells (qPCR, kynurenic acid stimulated); type: cell-based; conditions: U-937, 200 μM KA, 16 hours, CYP1A1 vs GAPDH, read-out: Cyp ANATAG mode assay: IC50
Experimental: To evaluate the AHR inhibitory activity of the test compounds, quantitative PCR analysis was used to determine expression level of the AHR-regulated gene CYP1A1 in a human monocytic U937 cell line upon stimulation of 200 μM kynurenic acid (KA) in the absence or presence of AHR inhibitor. U937 cells were seeded at a concentration of 5×10^5 cells/well in 200 μL of growth medium in 96-well cell culture microplates. CYP1A1 expression was induced with 200 μM KA (positive control) in the absence or presence of the test compounds for 16 hours. Human U937 cells were typically incubated with eight different concentrations of test compounds (typical dilution: […], 3.2 nM, 16 nM, 80 nM, 400 nM, 2 μM, 10 μM) and analyzed in duplicate on the same cell culture microplate. After stimulation, the media was removed, the cell RNA was isolated using RNeasy Mini Kit (Qiagen, 74104) and reverse-transcribed to cDNA using PrimeScript RT reagent Kit (Perfect Real Time) (TaKaRa, RR037A). Unstimulated cells were used as the negative control. Taqman probes for human CYP1A1 (Hs01054797_g1) and human GAPDH (Hs02786624_g1) were used to analyze fold expression of CYP1A1 of GAPDH.

IC50 [1] [nM] | IC50 [2] [nM] | Structure (SMILES)
< 100 | < 100 | C[C@@H](CO)NC(=O)c1cc(-c2cnc(-c3ccccc3F)nc2)nn(-c2cnn(C)c2)c1=O [Compound 194]
< 100 | < 100 | C[C@@H](CO)NC(=O)c1cc(-c2ccc(-c3ccccc3F)nc2)nn(-c2cnn(C)c2)c1=O [Compound 192]
< 100 | < 100 | C[C@@H](CO)NC(=O)c1cc(-c2cnc(-c3ccc(F)cc3)nc2)nc(-c2cnn(C)c2)n1 [Compound 199]
100 to 400 | < 100 | CCc1ccc(-c2cc(C(=O)N[C@@H](C)COC)c(=O)n(-c3cnn(C)c3)n2)cc1 [Compound 204]
< 100 | < 100 | C[C@@H](CO)NC(=O)c1cc(-c2ccc(-c3ccc(F)nc3)nc2)nn(-c2cnn(C)c2)c1=O [Compound 195]
< 100 | < 100 | COC[C@H](C)NC(=O)c1cc(-c2ccc(C(C)C)cc2)nn(-c2cnn(C)c2)c1=O [Compound 206]
< 100 | < 100 | CC(C)c1ccc(-c2cc(C(=O)N[C@@H](C)CO)c(=O)n(-c3cnn(C)c3)n2)cc1 [Compound 202]
100 to 400 | 100 to 400 | C[C@@H](CO)NC(=O)c1cc(-c2ccc(C3CCOCC3)cc2)nn(-c2cnn(C)c2)c1=O [Compound 197]
< 100 | < 100 | C[C@@H](CO)NC(=O)c1cc(-c2cnc(-c3cccc(F)c3)nc2)nn(-c2cnn(C)c2)c1=O [Compound 193]
< 100 | < 100 | C[C@@H](CO)NC(=O)c1cc(-c2ccc(C(C)(C)C)cc2)nn(-c2cnn(C)c2)c1=O [Compound 203]
< 100 | < 100 | CCc1ccc(-c2cc(C(=O)N[C@@H](C)CO)c(=O)n(-c3cnn(C)c3)n2)cc1 [Compound 201]
< 100 | < 100 | CNC(=O)[C@H](C)NC(=O)c1cc(-c2ccc(-c3ccc(Cl)cc3)nc2)nn(-c2cnn(C)c2)c1=O [Compound 183]
< 100 | < 100 | C[C@@H](CO)NC(=O)c1cc(-c2ccc(-c3ccccc3)nc2)nn(-c2cnn(C)c2)c1=O [Compound 185]
< 100 | < 100 | C[C@@H](CO)NC(=O)c1cc(-c2cnc(-c3ccc(F)cc3)nc2)nn(-c2cnn(C)c2)c1=O [Compound 186]
< 100 | < 100 | C[C@@H](CO)NC(=O)c1cc(-c2ccc(C3CCCCC3)cc2)nn(-c2cnn(C)c2)c1=O [Compound 198]
< 100 | < 100 | C[C@@H](CO)n1cnc2c(-c3cnn(C)c3)nc(-c3cnc(-c4ccc(F)cc4)nc3)cc2c1=O [Compound 200]

Further lines, the molecule ahead of its results:

Structure (SMILES) | IC50 [1] [nM] | IC50 [2] [nM]
CC(NC(=O)c1cc(-c2ccc(Cl)cc2)nn(-c2cccc(F)c2)c1=O)C(=O)N(C)C (centres unmarked) [Compound 13] | < 100 | 100 to 400
CNC(=O)[C@H](C)NC(=O)c1cc(-c2ccc(Cl)cc2)nn(-c2cnn(C)c2)c1=O [Compound 100] | < 100 | < 100
C[C@@H](CO)NC(=O)c1cc(-c2ccc(-c3ccc(Cl)cc3)cc2)nn(-c2cnn(C)c2)c1=O [Compound 148] | < 100 | < 100
COC[C@H](C)NC(=O)c1cc(-c2ccc3cc(OC)ccc3c2)nn(-c2cnn(C)c2)c1=O [Compound 113] | < 100 | < 100
COC[C@H](C)NC(=O)c1cc(-c2cnc(-c3ccc(Cl)cc3)nc2)nn(-c2cnn(C)c2)c1=O [Compound 139] | < 100 | < 100
CN(C)C(=O)C(C)(C)NC(=O)c1cc(-c2ccc(C(F)(F)F)cc2)nn(-c2cnn(C)c2)c1=O [Compound 167] | < 100 | < 100
CN(C)C(=O)C(C)(C)NC(=O)c1cc(-c2ccc(Cl)cc2)nn(-c2cnn(C)c2)c1=O [Compound 94] | < 100 | < 100
CNC(=O)[C@H](C)NC(=O)c1cc(-c2ccc(C(F)(F)F)cc2)nn(-c2cnn(C)c2)c1=O [Compound 169] | < 100 | < 100
CN1CCCC[C@H](NC(=O)c2cc(-c3ccc(C(F)(F)F)cc3)nn(-c3cnn(C)c3)c2=O)C1=O [Compound 164] | < 100 | < 100
COC[C@H](C)NC(=O)c1cc(-c2ccc(Cl)cc2)nn(-c2cn[nH]c2)c1=O [Compound 62] | 100 to 400 | < 100
COC[C@H](C)NC(=O)c1cc(-c2ccc(C(=O)N(C)C)cc2)nn(-c2cnn(C)c2)c1=O [Compound 90] | < 100 | < 100
CNC(=O)C(C)NC(=O)c1cc(-c2ccc(Cl)cc2)nn(-c2cccc(F)c2)c1=O (centres unmarked) [Compound 12] | 100 to 400 | 100 to 400
Cn1cc(-n2nc(-c3ccc(Cl)cc3)cc(C(=O)N[C@H]3CCCCNC3=O)c2=O)cn1 [59 - *stereo-pure] | < 100 | < 100
COC[C@H](C)NC(=O)c1cc(-c2ccc(C(F)(F)F)cc2)nn(-c2cnn(C)c2)c1=O [Compound 70] | < 100 | < 100
C[C@H](NC(=O)c1cc(-c2ccc(-c3ccc(Cl)cc3)nc2)nn(-c2cnn(C)c2)c1=O)C(=O)N(C)C [Compound 177] | < 100 | < 100
CNC(=O)[C@H](C)NC(=O)c1cc(-c2ccc(-c3ccc(Cl)cc3)cc2)nn(-c2cnn(C)c2)c1=O [Compound 171] | < 100 | < 100
COC[C@H](C)NC(=O)c1cc(-c2ccc(-c3ccc(Cl)cc3)nc2)nn(-c2cnn(C)c2)c1=O [Compound 156] | < 100 | < 100
CN1CCCC[C@H](NC(=O)c2cc(-c3ccc(OC(F)(F)F)cc3)nn(-c3cnn(C)c3)c2=O)C1=O [Compound 165] | < 100 | < 100
O=C(N[C@H]1CCCCNC1=O)c1cc(-c2ccc(Cl)cc2)nn(-c2cccc(F)c2)c1=O [28 - *stereo-pure] | < 100 | < 100
C[C@H](NC(=O)c1cc(-c2ccc(C(F)(F)F)cc2)nn(-c2cnn(C)c2)c1=O)C(=O)N(C)C [Compound 150] | < 100 | < 100
C[C@@H](CO)NC(=O)c1cc(-c2ccc(-c3ccc(Cl)cc3)nc2)nn(-c2cnn(C)c2)c1=O [Compound 157] | < 100 | < 100
COC[C@H](C)NC(=O)c1cc(-n2cc(-c3ccc(Cl)cc3)cn2)nn(-c2cnn(C)c2)c1=O [Compound 155] | < 100 | 100 to 400
CNC(=O)[C@H](C)NC(=O)c1cc(-c2ccc(Cl)cc2)nn(-c2cccc(F)c2)c1=O [Compound 98] | < 100 | < 100
Cc1nn(C)c2cc(-c3cc(C(=O)N[C@@H](C)C(=O)N(C)C)c(=O)n(-c4cnn(C)c4)n3)ccc12 [Compound 176] | < 100 | 100 to 400
COC[C@H](C)NC(=O)c1cc(-c2ccc3cc(F)ccc3c2)nn(-c2cnn(C)c2)c1=O [Compound 120] | < 100 | < 100
CNC(=O)[C@H](C)NC(=O)c1cc(-c2ccc(OC(F)(F)F)cc2)nn(-c2cnn(C)c2)c1=O [Compound 170] | < 100 | < 100
COC[C@H](C)NC(=O)c1cc(-c2ccc3c(C)nn(C)c3c2)nn(-c2cnn(C)c2)c1=O [Compound 123] | < 100 | < 100
